# According to US10174053B2, “2 substituted cephem compounds” (Glaxo Group Limited, priority 2012, dated 2019):
# Legend:
# Experiment in all cases: In vitro antimicrobial activity, MIC by broth microdilution (CLSI)
# Format in all cases: cell-based
# [1] = system: E. Coli JMI1890; details: Escherichia coli; PER-1, TEM-1, ESBL producing strain; 5×10^5 cfu/mL; cation-adjusted Iso-Sensitest broth containing human Apo-transferrin; read-out: Minimum Inhibitory Concentration (MIC) E. Coli JMI:1890
# Outline: (§1)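 MIC (μg/mL) by CLSI broth microdilution, inoculum 5×10^5 cfu/mL, in cation-adjusted Iso-Sensitest broth containing human apo-transferrin.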
# [2] = system: A. baumannii JMI2346; details: Acinetobacter baumannii, JMI2346; OXA-51, TEM, ESBL and OXA-type carbapenemase producing strain; 5×10^5 cfu/mL; cation-adjusted Iso-Sensitest broth containing human Apo-transferrin; read-out: Minimum Inhibitory Concentration (MIC) A. baumannii JMI:2346
# Outline: as §1
# [3] = system: A. baumannii JMI7; details: Acinetobacter baumannii, JMI7; PER-1, OXA-23, 51, ESBL and OXA-type carbapenemase producing strain; 5×10^5 cfu/mL; cation-adjusted Iso-Sensitest broth containing human Apo-transferrin; read-out: Minimum Inhibitory Concentration (MIC) A. baumannii JMI:7
# Outline: as §1
# [4] = system: K. pneumoniae SR01358; details: Klebsiella pneumoniae, SR01358; KPC-2, ESBL and KPC-type carbapenemase producing strain; 5×10^5 cfu/mL; cation-adjusted Iso-Sensitest broth containing human Apo-transferrin; read-out: Minimum Inhibitory Concentration (MIC) K. pneumoniae SR01358
# Outline: as §1
Compound,MIC [1] [µg/mL],MIC [2] [µg/mL],MIC [3] [µg/mL],MIC [4] [µg/mL]
"C[C@@H]1S[C@@H]2[C@H](NC(=O)/C(=N\OC(C)(C)C(=O)O)c3csc(N)n3)C(=O)N2C(C(=O)[O-])=C1C[N+]12CCC(Cn3cnc4cc(O)c(O)cc4c3=O)(CC1)C2 [Compound I-164, (4S,6R,7R)-7-((Z)-2-(2-aminothiazol-4-yl)-2-(((2-carboxypropan-2-yl)oxy)imino)acetamido)-3-((4-((6,7-dihydroxy-4-oxoquinazolin-3(4H)-yl)methyl)-1-azabicyclo[2.2.1]heptan-1-ium-1-yl)methyl)-4-methyl-8-oxo-5-thia-1-azabicyclo[4.2.0]oct-2-ene-2-carboxylate]",≤ 0.031,2,0.5,≤ 0.031
"C[C@@H]1S[C@@H]2[C@H](NC(=O)/C(=N\OC(C)(C)C(=O)O)c3csc(N)n3)C(=O)N2C(C(=O)[O-])=C1C[N+]12CCC(Cn3cnc4cc(O)c(O)c(Cl)c4c3=O)(CC1)C2 [Compound I-165, (4S,6R,7R)-7-((Z)-2-(2-aminothiazol-4-yl)-2-(((2-carboxypropan-2-yl)oxy)imino)acetamido)-3-((4-((5-chloro-6,7-dihydroxy-4-oxoquinazolin-3(4H)-yl)methyl)-1-azabicyclo[2.2.1]heptan-1-ium-1-yl)methyl)-4-methyl-8-oxo-5-thia-1-azabicyclo[4.2.0]oct-2-ene-2-carboxylate]",≤ 0.031,1,0.5,≤ 0.031
"C[C@@H]1S[C@@H]2[C@H](NC(=O)/C(=N\OC(C)(C)C(=O)[O-])c3csc(N)n3)C(=O)N2C(C(=O)[O-])=C1C[N+]12CCC(CNC(=O)c3c[nH]c4cc(O)c(O)c(Cl)c4c3=O)(CC1)CC2.[Na+] [Compound I-169, (4S,6R,7R)-7-((Z)-2-(2-aminothiazol-4-yl)-2-(((2-carboxypropan-2-yl)oxy)imino)acetamido)-3-((4-((5-chloro-6,7-dihydroxy-4-oxo-1,4-dihydroquinoline-3-carboxamido)methyl)quinuclidin-1-ium-1-yl)methyl)-4-methyl-8-oxo-5-thia-1-azabicyclo[4.2.0]oct-2-ene-2-carboxylate, Sodium salt]",0.063,0.5,0.25,≤ 0.031

# Now from value to compound:
MIC [1] [µg/mL],MIC [2] [µg/mL],MIC [3] [µg/mL],MIC [4] [µg/mL],Compound
4,1,0.25,≤ 0.031,"C[C@@H]1S[C@@H]2[C@H](NC(=O)/C(=N\OC(C)(C)C(=O)[O-])c3csc(N)n3)C(=O)N2C(C(=O)[O-])=C1C[N+]12CCC(CC1)N(C(=O)c1c[nH]c3cc(O)c(O)cc3c1=O)CC2.[Na+] [Compound I-174, (4S,6R,7R)-7-((Z)-2-(2-aminothiazol-4-yl)-2-(((2-carboxypropan-2-yl)oxy)imino)acetamido)-3-((4-(6,7-dihydroxy-4-oxo-1,4-dihydroquinoline-3-carbonyl)-1,4-diazabicyclo[3.2.2]nonan-1-ium-1-yl)methyl)-4-methyl-8-oxo-5-thia-1-azabicyclo[4.2.0]oct-2-ene-2-carboxylate, Sodium salt]"
0.063,0.5,0.25,≤ 0.031,"C[C@@H]1S[C@@H]2[C@H](NC(=O)/C(=N\OC(C)(C)C(=O)[O-])c3csc(N)n3)C(=O)N2C(C(=O)[O-])=C1C[N+]12CCC(CC1)N(C(=O)c1c[nH]c3cc(O)c(O)c(Cl)c3c1=O)CC2.[Na+] [Compound I-177, (4S,6R,7R)-7-((Z)-2-(2-aminothiazol-4-yl)-2-(((2-carboxypropan-2-yl)oxy)imino)acetamido)-3-((4-(5-chloro-6,7-dihydroxy-4-oxo-1,4-dihydroquinoline-3-carbonyl)-1,4-diazabicyclo[3.2.2]nonan-1-ium-1-yl)methyl)-4-methyl-8-oxo-5-thia-1-azabicyclo [4.2.0]oct-2-ene-2-carboxylate, Sodium salt]"
≤ 0.031,1,0.5,≤ 0.031,C[C@@H]1S[C@@H]2[C@H](NC(=O)/C(=N\OC(C)(C)C(=O)[O-])c3csc(N)n3)C(=O)N2C(C(=O)[O-])=C1C[N+]12CCC(Cn3[nH]c(=O)c4cc(O)c(O)cc4c3=O)(CC1)C2.[Na+] [Compound I-180]
